Key:
[1] = tested on: levels of uric acid; details: compared to allopurinol; cited from earlier work
[2] = Particle size distribution (D50) by laser diffraction, Sympatec Helos; type: physicochemical
Description: The term “Particle Size Distribution (P.S.D.)” means the cumulative volume size distribution of equivalent spherical diameters as determined by laser diffraction at 1 bar dispersive pressure in Sympatec Helos equipment. “Mean particle size distribution, i.e., D50” correspondingly, means the median of said particle size distribution.

Cc1nc(-c2ccc(OCC(C)C)c(C#N)c2)sc1C(=O)O [febuxostat, 2-[3-cyano-4-(2-methylpropoxy)phenyl]-4-methyl-5-thiazolecarboxylic acid]
amount of initial gout flares or surface area of gout tophi [1]: no difference
individuals with decreased levels of uric acid [1]: more individuals treated with febuxostat had decreased levels of uric acid

Cc1nc(-c2ccc(OCC(C)C)c(C#N)c2)sc1C(=O)O [Febuxostat crystalline Form H1, 2-[3-cyano-4-(2-methylpropoxy)phenyl]-4-methyl-5-thiazolecarboxylic acid]
D50 (mean particle size distribution) ([2]; after grinding for 5 to 10 minutes): 2.15 μm
D50 (mean particle size distribution) ([2]; before grinding, in µm (unit assumed)): 322.46

— US20140112992A1, “PROCESS FOR FEBUXOSTAT” (HETERO RESEARCH FOUNDATION, priority 2011, published 2014)
